From patent US4889634A, “Dialysate solution containing hydroxypropyl-beta-cyclodextrin and method of using same” (priority 1988, dated 1989)

How the values were obtained:
[1] = tested on: rats [Crl:CD(SD) BR strain]; test: 14-day intravenous toxicity study in rats; assay type: in vivo, rat; settings: rat, in vivo, iv, 200 mg/kg
Experimental: (§1) As part of the toxicological evaluation of HPBCD, control groups of animals were dosed with HPBCD alone.
Two groups (5/sex/group) of rats [Crl:CD(SD) BR strain] were used for this study. Control rats were given 200 mg of salt per kilogram of body weight intravenously administered in a saline control solution comprising 20% salt by weight in water. The saline control was administered every second day for 14 days (i.e. seven injections). The treated rats were given 200 mg of HPBCD per kilogram of body weight intravenously administered (200 mg/kg i.v. HPBCD) via a HPBCD solution containing 20% HPBCD by weight in water on the same injection schedule. […] At the end of the study the animals were necropsied, gross pathology was observed, histopathological samples were prepared and blood was drawn for clinical laboratory measurements.

normal rats = test: relative nephrotoxicity of HPBCD and BCD, intraperitoneal; assay type: in vivo, rat; settings: for Mortality (died/total): BCD 0.75% w/v, HPBCD 1.5 and 3% w/v, 15 ml/100 g i.p.
Experimental: A first study was conducted to determine the relative nephrotoxicity of HPBCD and BCD. A control group using phosphate buffer solution was also included in the study.
Three groups of normal rats were utilized in this study. […] Group I rats were given the vehicle solution of phosphate buffer saline (PBS). Group II rats were subdivided into three sub-groups. The first sub-group received a solution having a concentration of 1.5% HPBCD, the second sub-group received a solution having a concentration of 3% HPBCD while the third sub-group received a solution having a concentration of 6% HPBCD. Group III rats were given a solution having a concentration of 0.75% BCD.
Animals from each group were sacrificed at 24 and 72 hours after injection of the peritoneal solution. The animals were sacrificed under general anesthesia and exsanguinated from the abdominal aorta. Plasma was separated and blood urea nitrogen and creatinine was measured and used as an index of renal toxicity of the solutions.

Cynomolgus monkeys = settings: cynomolgus monkey, in vivo
Experimental: as §1
Two groups (1/sex/group) of Cynomolgus monkeys were used for this study. Control monkeys were given 200 mg of salt per kilogram of body weight intravenously administered as a saline control solution of 20% by weight in water. The saline control was administered every second day for 14 days (i.e. 7 doses). The treated monkeys were given 200 mg/kg i.v. HPBCD on the same injection schedule. […] At the end of the study the animals were necropsied, gross pathology was observed, histopathology samples were prepared and blood was drawn for clinical laboratory measurements.

[2] = 1 day, BCD 0.75%, HPBCD 1.5 and 3%
[3] = 3 day, BCD 0.75%, HPBCD 1.5 and 3%

Q: hydroxypropyl-beta-cyclodextrin [HPBCD] was tested. Which Hemoglobin [1] did it give?
A: 13.6 ± 3.06 G/DL

Q: What about the Ionic phosphate [1] of the same substance?
A: 8.3 ± 0.82 mg/dL

Q: And the Lymphocytes [1]?
A: 6.80 ± 2.42 × 10^3 /mm^3

Q: What about the Mean corpuscle [1] of the same substance?
A: 65.0 ± 2.70 fL

Q: What about the Mean corpuscle hemoglobin [1] of the same substance?
A: 18.4 ± 2.41 pg

Q: And the Monocytes [1]?
A: 0.05 ± 0.08 ×10^3 /mm^3

Q: What about the Normal blood cells [1] of the same substance?
A: 0.0 ± 0.00 /100 white blood cells

Q: What about the Platelet count [1] of the same substance?
A: 924 ± 395.20 × 10^3 /mm^3

Q: What about the Potassium [1] of the same substance?
A: 4.5 ± 0.16 mmol/L

Q: What about the Red blood cell [1] of the same substance?
A: 7.32 ± 1.00 × 10^6 /mm^3

Q: What about the Segmented neutrophils [1] of the same substance?
A: 0.49 ± 0.22 × 10^3 /mm^3

Q: What about the Sodium [1] of the same substance?
A: 141.0 ± 1.10 mmol/L

Q: And the Total bilirubin [1]?
A: 0.3 ± 0.05 mg/dL

Q: What about the Total proteins [1] of the same substance?
A: 6.5 ± 0.38 G/dL

Q: What about the “Mortality (died/total)” value (normal rats; 1 day) of the same substance?
A: 0/6

Q: And the Kidney size (normal rats; [2])?
A: normal

Q: And the Kidney weight (normal rats; [2])?
A: normal

Q: And the BUN (normal rats; 1 day, BCD 0.75%, HPBCD 1.5 and 3%, Table III)?
A: 14.8 mg/dL

Q: What about the “Mortality (died/total)” value (normal rats; 3 day) of the same substance?
A: 0/6

Q: And the Kidney size (normal rats; [3])?
A: normal

Q: What about the Kidney weight (normal rats; [3]) of the same substance?
A: normal

Q: What about the BUN (normal rats; 3 day, HPBCD 1.5 and 3%, Table III) of the same substance?
A: 19.8 mg/dL

Q: And the BUN (normal rats; HPBCD 1.5%, 1d, n = 6)?
A: 14.8 mg/dL

Q: What about the “Final body weight Wt (f)” value (normal rats; HPBCD 1.5%, 1d, n = 6) of the same substance?
A: 210 g

Q: And the “Initial body weight Wt (i)” value (normal rats; HPBCD 1.5%, 1d, n = 6)?
A: 213 g

Q: What about the “Left kidney weight (Lt kd)” value (normal rats; HPBCD 1.5%, 1d, n = 6) of the same substance?
A: 867 mg

Q: What about the “Left kidney/body weight (Lt kd/wt)” value (normal rats; HPBCD 1.5%, 1d, n = 6) of the same substance?
A: 4.11 mg/g

Q: And the Mortality (normal rats; HPBCD 1.5%, 1d, n = 6)?
A: 0%

Q: What about the “Right kidney weight (Rt kd)” value (normal rats; HPBCD 1.5%, 1d, n = 6) of the same substance?
A: 860 mg

Q: And the “Right kidney/body weight (Rt kd/wt)” value (normal rats; HPBCD 1.5%, 1d, n = 6)?
A: 4.08 mg/g

Q: And the BUN (normal rats; HPBCD 1.5%, 3d, n = 6)?
A: 19.8 mg/dL

Q: What about the “Final body weight Wt (f)” value (normal rats; HPBCD 1.5%, 3d, n = 6) of the same substance?
A: 280 g

Q: And the “Initial body weight Wt (i)” value (normal rats; HPBCD 1.5%, 3d, n = 6)?
A: 296 g

Q: What about the “Left kidney weight (Lt kd)” value (normal rats; HPBCD 1.5%, 3d, n = 6) of the same substance?
A: 1027 mg

Q: What about the “Left kidney/body weight (Lt kd/wt)” value (normal rats; HPBCD 1.5%, 3d, n = 6) of the same substance?
A: 3.68 mg/g

Q: What about the Mortality (normal rats; HPBCD 1.5%, 3d, n = 6) of the same substance?
A: 0%

Q: What about the “Right kidney weight (Rt kd)” value (normal rats; HPBCD 1.5%, 3d, n = 6) of the same substance?
A: 1009 mg

Q: What about the “Right kidney/body weight (Rt kd/wt)” value (normal rats; HPBCD 1.5%, 3d, n = 6) of the same substance?
A: 3.61 mg/g

Q: What about the BUN (normal rats; HPBCD 3%, 1d, n = 6) of the same substance?
A: 15.7 mg/dL

Q: And the “Final body weight Wt (f)” value (normal rats; HPBCD 3%, 1d, n = 6)?
A: 301 g

Q: What about the “Initial body weight Wt (i)” value (normal rats; HPBCD 3%, 1d, n = 6) of the same substance?
A: 322 g

Q: What about the “Left kidney weight (Lt kd)” value (normal rats; HPBCD 3%, 1d, n = 6) of the same substance?
A: 1034 mg

Q: What about the “Left kidney/body weight (Lt kd/wt)” value (normal rats; HPBCD 3%, 1d, n = 6) of the same substance?
A: 3.43 mg/g

Q: And the Mortality (normal rats; HPBCD 3%, 1d, n = 6)?
A: 0%

Q: And the “Right kidney weight (Rt kd)” value (normal rats; HPBCD 3%, 1d, n = 6)?
A: 1054 mg

Q: What about the “Right kidney/body weight (Rt kd/wt)” value (normal rats; HPBCD 3%, 1d, n = 6) of the same substance?
A: 3.49 mg/g

Q: What about the BUN (normal rats; HPBCD 3%, 3d, n = 6) of the same substance?
A: 19.9 mg/dL

Q: What about the “Final body weight Wt (f)” value (normal rats; HPBCD 3%, 3d, n = 6) of the same substance?
A: 267 g

Q: And the “Initial body weight Wt (i)” value (normal rats; HPBCD 3%, 3d, n = 6)?
A: 275 g

Q: What about the “Left kidney weight (Lt kd)” value (normal rats; HPBCD 3%, 3d, n = 6) of the same substance?
A: 995 mg

Q: What about the “Left kidney/body weight (Lt kd/wt)” value (normal rats; HPBCD 3%, 3d, n = 6) of the same substance?
A: 3.72 mg/g

Q: And the Mortality (normal rats; HPBCD 3%, 3d, n = 6)?
A: 0%

Q: What about the “Right kidney weight (Rt kd)” value (normal rats; HPBCD 3%, 3d, n = 6) of the same substance?
A: 1009 mg

Q: And the “Right kidney/body weight (Rt kd/wt)” value (normal rats; HPBCD 3%, 3d, n = 6)?
A: 3.78 mg/g

Q: And the BUN (normal rats; HPBCD 6%, 1d, n = 6)?
A: 14.5 mg/dL

Q: What about the “Final body weight Wt (f)” value (normal rats; HPBCD 6%, 1d, n = 6) of the same substance?
A: 227 g

Q: And the “Initial body weight Wt (i)” value (normal rats; HPBCD 6%, 1d, n = 6)?
A: 240 g

Q: What about the “Left kidney weight (Lt kd)” value (normal rats; HPBCD 6%, 1d, n = 6) of the same substance?
A: 1076 mg

Q: What about the “Left kidney/body weight (Lt kd/wt)” value (normal rats; HPBCD 6%, 1d, n = 6) of the same substance?
A: 4.73 mg/g

Q: And the Mortality (normal rats; HPBCD 6%, 1d, n = 6)?
A: 0%

Q: And the “Right kidney weight (Rt kd)” value (normal rats; HPBCD 6%, 1d, n = 6)?
A: 1066 mg

Q: And the “Right kidney/body weight (Rt kd/wt)” value (normal rats; HPBCD 6%, 1d, n = 6)?
A: 4.70 mg/g

Q: What about the Rats died (normal rats; HPBCD Groups, 1 and 3 day, in words) of the same substance?
A: None of the rats

Q: What about the Changes in behavior (Cynomolgus monkeys) of the same substance?
A: No changes in behavior were observed

Q: And the “Changes in daily food consumption” value (Cynomolgus monkeys)?
A: No weight changes were observed (TABLE XIII) or changes in daily food consumption

Q: And the “Gross pathological changes and histopathological findings” value (Cynomolgus monkeys)?
A: No gross pathological changes and no histopathological findings were observed

Q: What about the “Hematology and clinical chemistry values” (Cynomolgus monkeys) of the same substance?
A: No differences were seen

Q: What about the Weight changes (Cynomolgus monkeys) of the same substance?
A: No weight changes were observed

Q: And the Basophils (Cynomolgus monkeys; 200 mg/kg)?
A: 0.00 × 10^3 /mm^3

Q: And the Immature neutrophils (Cynomolgus monkeys; 200 mg/kg)?
A: 0.00 × 10^3 mm^3

Q: And the Normal blood cells (Cynomolgus monkeys; 200 mg/kg)?
A: 0.00 /100 white blood cells
